Where a SMILES comes first, the peptide text is derived from it. Where no end group is shown, it is not given here. [ ]: non-standard residue; d: D form. The star is where a group is joined. pY = N[C@@H](Cc1ccc(OP(=O)(O)O)cc1)C(=O)O; NMeY = CN[C@@H](Cc1ccc(O)cc1)C(=O)O; Palmitoyl = CCCCCCCCCCCCCCCC(=O)*; Tle = CC(C)(C)[C@H](N)C(=O)O
What was measured:
[1] = Pharmacokinetic characteristics in rats after intravenous administration (plasma, LC-MS/MS); assay type: in vivo; conditions: SD rats, intravenous (tail vein), 10 mg/kg; for MRT inf: rat
Experimental: Experimental Example 2: Pharmacokinetic Characteristics of Various Compounds in Rats
Intravenous administration: Three SD rats per group were administered the compounds of Example 1, Example 2, Example 3, Example 6, Example 7, Example 17, and Example 19 via the tail vein, respectively, at a dose of 10 mg/kg. all SD rats were allowed free access to food and water after administration. Plasma was collected 3 min, 10 min, 30 min, 1 h, 2 h, 6 h, 10 h, and 24 h after administration, with 3 rats per time point.
Sample processing: Whole blood was anticoagulated with EDTA-K2. Within 30 minutes of collection, the blood was centrifuged at 3000 g for 10 minutes at 2-8 °C. After centrifugation, the separated plasma was transferred to new 1.5 mL centrifuge tubes and stored at −80 °C.
Analytical method: The concentrations of each compounds in rat plasma were determined by LC-MS/MS using Shimadzu LC30AD and AB Sciex QTRAP 6500+instruments. The relevant pharmacokinetic parameters after administration were calculated.

[2] = test system: PC-12 cells; test: Cell viability of PC-12 neural cells under glutamate stimulation (excitotoxic cell death model, propidium iodide/Hoechst staining); assay type: cell-based, rat; conditions: for Normalized cell viability (%): 10 nM compound, 30 min pretreatment, then glutamate stimulation 24 h, normalized to positive control MK-801; for EC50: dose-response relationship in promoting the viability of PC-12 neurons, glutamate stimulation
Experimental: 1.1. Culture of PC-12 Cell Line and Establishment of Excitotoxic Cell Death Model
PC-12 cells (a […] cell line derived from rat adrenal medulla) were cultured in DMEM/F12 complete medium until eaching 80-90% confluence. The cells were then digested, collected, resuspended, and seeded at density of 5×10^4 cells per well in a 24-well plate precoated with coverslips. Following 26 hours of cell culture, excitotoxic cell death was induced by glutamate stimulation. For model establishment: an appropriate amount of glutamate was weighed and dissolved in DMEM/F12 medium to prepare a stock solution. After filtration, the stock solution was diluted with culture medium and administered to the cells via medium replacement. The cells were further incubated for 24 hours after administration.
1.2 Administration of Small Molecules
Prior to glutamate modeling, cells incubated as described in the previous step were pretreated with 10 nM of the polypeptide compound according to the present application for 30 minutes, followed by glutamate stimulation.
1.3. Propidium Iodide Staining
Cells treated with the polypeptide compound according to the present application were stained with propidium iodide to assess cell death. After discarding the culture medium, the cells were washed with PBS, and propidium iodide/Hoechst was added. After incubating for 30 minutes, the cells were removed and the staining solution was discarded. After washing with PBS, the cells were fixed and mounted, and subjected to image acquisition under a fluorescence microscope. The number of propidium iodide-positive cells and Hoechst-positive cells in the acquired images was counted to calculate the cell viability. MK-801 was used as the positive control compound. The normalized cell viability was calculated using the following formula: (cell viability of the compound group −cell viability of the glutamate group)/(cell viability of the positive control group −cell viability of the glutamate group)×100%.
Based on the above dose-response studies of the compound, the inhibitory effects of different small-molecule compounds at the same dose (10 nM) against excitotoxic death in PC-12 neurons cells were further compared.
Based on this, the dose-response relationship of the neuroprotective effect of the polypeptide compounds according to the present application on PC-12 neural cells was analyzed.

Compound	Normalized cell viability (%) [2] [%]	further results
CC(C)C[C@H](NC(=O)[C@H](CCCCN)NC(=O)[C@H](CC(N)=O)NC(=O)[C@H](CCCNC(=N)N)NC(=O)[C@H](CC(N)=O)NC(=O)[C@H](CCCCN)NC(=O)[C@H](CCCCN)NC(=O)[C@H](CCCNC(=N)N)NC(=O)[C@H](CCCNC(=N)N)NC(=O)[C@H](CCCNC(=N)N)NC(=O)[C@H](CCC(N)=O)NC(=O)[C@H](CCCNC(=N)N)NC(=O)[C@H](CCCNC(=N)N)NC(=O)[C@H](CCCCN)NC(=O)[C@H](CCCCN)NC(=O)[C@H](CCCNC(=N)N)NC(=O)CNC(=O)[C@@H](N)Cc1ccc(OP(=O)(O)O)cc1)C(=O)N[C@@H](CCCNC(=N)N)C(=O)N[C@@H](CCCNC(=N)N)C(=O)N[C@@H](CCC(N)=O)C(=O)N[C@@H](Cc1c[nH]cn1)C(=O)N[C@@H](CO)C(=O)N[C@@H](Cc1ccc(O)cc1)C(=O)O [Example 3] (H-[pY]GRKKRRQRRRKKNRNKLRRQHSY-OH)	–	T1/2 [1]: 1.28 h; Vss [1]: 7.90 L/kg; MRT inf [1]: 1.71 h
CN[C@@H](Cc1ccc(O)cc1)C(=O)NCC(=O)N[C@@H](CCCNC(=N)N)C(=O)N[C@@H](CCCCN)C(=O)N[C@@H](CCCCN)C(=O)N[C@@H](CCCNC(=N)N)C(=O)N[C@@H](CCCNC(=N)N)C(=O)N[C@@H](CCC(N)=O)C(=O)N[C@@H](CCCNC(=N)N)C(=O)N[C@@H](CCCNC(=N)N)C(=O)N[C@@H](CCCNC(=N)N)C(=O)N[C@@H](CCCCN)C(=O)N[C@@H](CCCCN)C(=O)N[C@@H](CC(N)=O)C(=O)N[C@@H](CCCNC(=N)N)C(=O)N[C@@H](CC(N)=O)C(=O)N[C@@H](CCCCN)C(=O)N[C@@H](CC(C)C)C(=O)N[C@@H](CCCNC(=N)N)C(=O)N[C@@H](CCCNC(=N)N)C(=O)N[C@@H](CCC(N)=O)C(=O)N[C@@H](Cc1c[nH]cn1)C(=O)N[C@@H](CO)C(=O)N[C@@H](Cc1ccc(O)cc1)C(N)=O [Example 9] (H-[NMeY]GRKKRRQRRRKKNRNKLRRQHSY-NH2)	63.17	EC50 [2]: 4.83 nM
CCCCCCCCCCCCCCCC(=O)N[C@@H](Cc1ccc(O)cc1)C(=O)NCC(=O)N[C@@H](CCCNC(=N)N)C(=O)N[C@@H](CCCCN)C(=O)N[C@@H](CCCCN)C(=O)N[C@@H](CCCNC(=N)N)C(=O)N[C@@H](CCCNC(=N)N)C(=O)N[C@@H](CCC(N)=O)C(=O)N[C@@H](CCCNC(=N)N)C(=O)N[C@@H](CCCNC(=N)N)C(=O)N[C@@H](CCCNC(=N)N)C(=O)N[C@@H](CCCCN)C(=O)N[C@@H](CCCCN)C(=O)N[C@@H](CC(N)=O)C(=O)N[C@@H](CCCNC(=N)N)C(=O)N[C@@H](CC(N)=O)C(=O)N[C@@H](CCCCN)C(=O)N[C@@H](CC(C)C)C(=O)N[C@@H](CCCNC(=N)N)C(=O)N[C@@H](CCCNC(=N)N)C(=O)N[C@@H](CCC(N)=O)C(=O)N[C@@H](Cc1c[nH]cn1)C(=O)N[C@@H](CO)C(=O)N[C@@H](Cc1ccc(O)cc1)C(N)=O [Example 10] (Palmitoyl-YGRKKRRQRRRKKNRNKLRRQHSY-NH2)	49.46	–
CCCCCCCCCCCCCCCC(=O)NCCOCCOCC(=O)NCCCC[C@H](NC(=O)[C@H](CCCNC(=N)N)NC(=O)[C@H](CCCNC(=N)N)NC(=O)[C@H](CCCNC(=N)N)NC(=O)[C@H](CCC(N)=O)NC(=O)[C@H](CCCNC(=N)N)NC(=O)[C@H](CCCNC(=N)N)NC(=O)[C@H](CCCCN)NC(=O)[C@H](CCCCN)NC(=O)[C@H](CCCNC(=N)N)NC(=O)CNC(=O)[C@@H](N)Cc1ccc(O)cc1)C(=O)N[C@@H](CCCCN)C(=O)N[C@@H](CC(N)=O)C(=O)N[C@@H](CCCNC(=N)N)C(=O)N[C@@H](CC(N)=O)C(=O)N[C@@H](CCCCN)C(=O)N[C@@H](CC(C)C)C(=O)N[C@@H](CCCNC(=N)N)C(=O)N[C@@H](CCCNC(=N)N)C(=O)N[C@@H](CCC(N)=O)C(=O)N[C@@H](Cc1c[nH]cn1)C(=O)N[C@@H](CO)C(=O)N[C@@H](Cc1ccc(O)cc1)C(=O)O [Example 14, YGRKKRRQRRRK(N-AEEA-Palmitic acid)KNRNKLRRQHSY]	84.14	–
CC(=O)N[C@@H](Cc1ccc(O)cc1)C(=O)NCC(=O)N[C@@H](CCCNC(=N)N)C(=O)N[C@@H](CCCCN)C(=O)N[C@@H](CCCCN)C(=O)N[C@@H](CCCNC(=N)N)C(=O)N[C@@H](CCCNC(=N)N)C(=O)N[C@@H](CCC(=O)O)C(=O)N[C@@H](CCCNC(=N)N)C(=O)N[C@@H](CCCNC(=N)N)C(=O)N[C@@H](CCCNC(=N)N)C(=O)N[C@@H](CCCCN)C(=O)N[C@@H](CCCCN)C(=O)N[C@@H](CC(=O)O)C(=O)N[C@@H](CCCNC(=N)N)C(=O)N[C@@H](CC(=O)O)C(=O)N[C@@H](CCCCN)C(=O)N[C@H](CC(C)C)C(=O)N[C@@H](CCCNC(=N)N)C(=O)N[C@@H](CCCNC(=N)N)C(=O)N[C@@H](CCC(=O)O)C(=O)N[C@@H](Cc1c[nH]cn1)C(=O)N[C@@H](CO)C(=O)N[C@@H](Cc1ccc(O)cc1)C(N)=O [Example 20, Ac-YGRKKRRERRRKKDRDK(D-L)RREHSY-NH2] (Ac-YGRKKRRERRRKKDRDK[dL]RREHSY-NH2)	87.36	–
CC(=O)N[C@@H](Cc1ccc(O)cc1)C(=O)NCC(=O)N[C@@H](CCCNC(=N)N)C(=O)N[C@@H](CCCCN)C(=O)N[C@@H](CCCCN)C(=O)N[C@@H](CCCNC(=N)N)C(=O)N[C@@H](CCCNC(=N)N)C(=O)N[C@@H](CCC(=O)O)C(=O)N[C@@H](CCCNC(=N)N)C(=O)N[C@@H](CCCNC(=N)N)C(=O)N[C@@H](CCCNC(=N)N)C(=O)N[C@@H](CCCCN)C(=O)N[C@@H](CCCCN)C(=O)N[C@@H](CC(=O)O)C(=O)N[C@@H](CCCNC(=N)N)C(=O)N[C@@H](CC(=O)O)C(=O)N[C@@H](CCCCN)C(=O)N[C@H](C(=O)N[C@@H](CCCNC(=N)N)C(=O)N[C@@H](CCCNC(=N)N)C(=O)N[C@@H](CCC(=O)O)C(=O)N[C@@H](Cc1c[nH]cn1)C(=O)N[C@@H](CO)C(=O)N[C@@H](Cc1ccc(O)cc1)C(N)=O)C(C)(C)C [Example 25, Ac-YGRKKRRERRRKKDRDKTleRREHSY-NH2] (Ac-YGRKKRRERRRKKDRDK[Tle]RREHSY-NH2)	86.80	–
CC(=O)N[C@@H](Cc1ccc(O)cc1)C(=O)NCC(=O)N[C@@H](CCCNC(=N)N)C(=O)N[C@@H](CCCCN)C(=O)N[C@H](CCCCN)C(=O)N[C@H](CCCNC(=N)N)C(=O)N[C@@H](CCCNC(=N)N)C(=O)N[C@@H](CCC(=O)O)C(=O)N[C@@H](CCCNC(=N)N)C(=O)N[C@H](CCCNC(=N)N)C(=O)N[C@@H](CCCNC(=N)N)C(=O)N[C@@H](CCCCN)C(=O)N[C@@H](CCCCN)C(=O)N[C@@H](CC(=O)O)C(=O)N[C@@H](CCCNC(=N)N)C(=O)N[C@@H](CC(=O)O)C(=O)N[C@@H](CCCCN)C(=O)N[C@H](CC(C)C)C(=O)N[C@H](CCCNC(=N)N)C(=O)N[C@@H](CCCNC(=N)N)C(=O)N[C@@H](CCC(=O)O)C(=O)N[C@@H](Cc1c[nH]cn1)C(=O)N[C@@H](CO)C(=O)N[C@@H](Cc1ccc(O)cc1)C(N)=O [Example 26, Ac-YGRK(D-K)(D-R)RER(D-R)RKKDRDK(D-L)(D-R)REHSY-NH2] (Ac-YGRK[dK][dR]RER[dR]RKKDRDK[dL][dR]REHSY-NH2)	82.39	–
Ac-YGRKKRRERRRKKDRDKLRREHSY-NH2 [Example 18]	87.20	–
Ac-YGRKKRRERRRKKDRDKVRREHSY-NH2 [Example 23]	74.16	–
Ac-YGRKKRRQRRRKKNRNKLRRQHSY [Example 4]	85.00	–
YGRKKRRERRRKKDRNKLRRQHSY [Example 17]	–	T1/2 [1]: 1.66 h; Vss [1]: 23.1 L/kg; MRT inf [1]: 2.29 h
YGRKKRRQRRRKKNRDKLRREHSY [Example 16]	85.15	EC50 [2]: 18.8 nM
YGRKKRRQRRRKKNRNKIRRQHSY-NH2 [Example 12]	58.59	–

Reference: patent publication US20260347409A1, “CHEMICALLY MODIFIED POLYPEPTIDE” (SUZHOU GLENKOL PHARMA TECHNOLOGY CO., LTD., priority 2023, published 2026)
